This is an account of results in patent US20260297136A1, “PEPTIDES WITH LIPOLYTIC, ANTI-LIPOGENIC, ANTIFIBROTIC AND ANTI-INFLAMMATORY ACTIVITY” (FUNDACIÓ HOSPITAL UNIVERSITARI VALL D'HEBRON - INSTITUT DE …, priority 2023, published 2026).

The test system of experiment [1] is HepG2 cells. The experiment can be described thus: Hepatic lipogenesis gene expression (ACC, FAS, ACLY mRNA by RTPCR) in HepG2 cells, Example 2. In kind it is cell-based, human. To be noted: 10 μM, 24 h, relative to 18S. Here is the method:
FIG. 5 Human hepatoblastoma cell line HepG2 was treated with vehicle (DMSO) or 10 μM of GP4, GP7, GP8 or GP9 for 24 h. RNA was extracted and mRNA levels of Acetyl-CoA Carboxylase (ACC), Fatty Acid Synthase (FAS) and ATP-Citrate Lyase (ACLY) relative to 18S were measured by RTPCR.
Cell culture reagents were from Life Technologies Inc (Invitrogen SA, Barcelona, Spain). HepG2 hepatoblastoma cells (cat. no. HB-8065; ATCC, LGC Standards SLU, Barcelona, Spain) were maintained in Dulbecco's modified Eagle medium (DMEM) supplemented with 10% fetal bovine serum and antibiotics. HepG2 cells were treated with vehicle or 10 μM of GP4, GP7, GP8 and GP9 for 24 h. LX-2 human hepatic stellate cells (SCC064) were maintained in DMEM supplemented with 2% fetal bovine serum and antibiotics. For experiments, LX-2 were cultured for 24 h in DMEM 0.2% FBS and treated for 24 h with vehicle or TGFβ1 (20 ng/ml) in the absence or presence of 8 μM of GP4, GP7, GP8 and GP9 for 24 h. At the end of the experiment's cells were harvested for gene expression analysis.
Total RNA was extracted from HepG2 and LX-2 cells using TRIzol reagent (Invitrogen SA). Reverse transcription was performed at 42° C. for 50 minutes using […] of total RNA, 200 U of Superscript II, and an oligo-dT primer and reagents provided by Invitrogen. An aliquot of the reverse transcription product was amplified in a […] reaction using SYBRGreen (Invitrogen SA) with appropriate oligonucleotide primer pairs corresponding to human ACC, FAS, ACLY, Col1A1 and 18S (shown in table 7). Results were analyzed using the 7000 Sequence Detection System program (Applied Biosystems, Thermo Fisher Scientific, Barcelona, Spain) (Sex Hormone-Binding Globulin Reduction in Metabolic Disorders May Play a Role in NAFLD Development.Saez-Lopez C, Barbosa-Desongles A, Hernandez C, Dyer R A, Innis S M, Simo R, Selva D M. Endocrinology. 2017 Mar. 1; 158(3):545-559. doi: 10.1210/en.2016-1668).

The subject of experiment [2] is human mature adipocytes. Nature of the experiment: Lipolysis in human mature adipocytes (glycerol production), Example 2. To be noted: 16 h; for increase of glycerol production (lipolysis): 10 μM, with respect to control cells. In kind it is cell-based. The procedure:
FIG. 7. Mature human subcutaneous adipocytes were treated with vehicle (DMSO), 3 μM of Isoproterenol or 10 μM of GP4, GP8 or GP9 for 16 h. Glycerol concentration was assessed using a Lipolysis Assay Kit (Tebu-bio). Lipolysis induction was calculated with respect to the control cells treated with DMSO.
(§1) Human preadipocytes and cell culture reagents were from purchased from Tebu-Bio (Tebu-bio, Barcelona, Spain) and differentiation protocol was done following the manufacturer's instructions. Human adipocytes were maintained in a humidified incubator with 5% CO2 at 37° C. (Sex hormone-binding globulin overexpression protects against high-fat diet-induced obesity in transgenic male mice. Saez-Lopez C, Villena J A, Simo R, Selva D M. J Nutr Biochem. 2020 November; 85:108480. doi: 10.1016/j.jnutbio.2020.108480).
Lipolysis assays were performed using a Lipolysis Kit (Tebu-Bio) following the manufacturer's instructions as previously described.

Experiment [3] relates to HepG2 cells. The experiment can be described thus: Hepatic lipogenic key enzymes in HepG2 cells in the presence of 30 mM fructose (2 h), Example 7. Format: cell-based, human. Here is the method:
FIG. 34. Effects of different peptides and SHBG in reducing hepatic lipogenic key enzymes in the presence of 30 mM fructose. Each bar within each group represents mRNA levels of a key hepatic lipogenic enzyme, from left to right: Acetyl-CoA Carboxylase (ACC), ATP Citrate Lyase (ACLY) and Fatty Acid Synthase (FAS), and a key transcription factor regulating several lipogenic enzymes such as PPARγ (PPARγ).
Cell culture reagents were from Life Technologies Inc (Invitrogen SA, Barcelona, Spain). HepG2 hepatoblastoma cells (cat. no. HB-8065; ATCC, LGC Standards SLU, Barcelona, Spain) were maintained in Dulbecco's modified Eagle medium (DMEM) supplemented with 10% fetal bovine serum and antibiotics.
• HepG2 cells were cultured for 5 day in the absence or presence of 30 mM fructose. Cells cultured in 30 mM fructose were daily treated with vehicle, Telmisartan, Semaglutide or EDL6D. • HepG2 cells were cultured for 24 h in the absence or presence of GP6 (40 μg/ml), GP10 (40 μg/ml), GP11 (40 μg/ml), GP12 (40 μg/ml), GP13 (40 μg/ml) or SHBG (20 nM). • HepG2 cells were cultured in the absence or presence of 30 mM fructose and treated for 2 h with vehicle or GP4 (40 μg/ml), GP6 (40 μg/ml), GP7 (40 μg/ml), GP8 (40 μg/ml), GP9 (40 μg/ml), GP10 (40 μg/ml), GP11 (40 μg/ml), GP12 (40 μg/ml), GP13 (40 μg/ml) or SHBG (20 nM).
Total RNA was extracted from HepG2 and LX-2 cells using TRIzol reagent (Invitrogen SA). Reverse transcription was performed at 42° C. for 50 minutes using […] of total RNA, 200 U of Superscript II, and an oligo-dT primer and reagents provided by Invitrogen. An aliquot of the reverse transcription product was amplified in a […] reaction using SYBRGreen (Invitrogen SA) with appropriate oligonucleotide primer pairs corresponding to human SHBG, ACC, FAS, ACLY, PPARG, and 18S and mouse ACC, FAS, ACLY, PPARG, Col1A1 and 18S. Results were analyzed using the 7000 Sequence Detection System program (Applied Biosystems, Thermo Fisher Scientific, Barcelona, Spain) (Shez-Lopez et al Endocrinology 2017).

Experiment [4] deals with LX-2 cells. Nature of the experiment: Fibrosis in LX-2 cells: Col1A1 mRNA induced by TGFβ1, Example 2. In kind it is cell-based, human. The following applies: 8 μM, 24 h. Here is the method:
FIG. 6. Human hepatic stellate cell line LX-2 was treated with vehicle (DMSO) or TGFβ1 (10 ng/ml) in the absence or presence of 8 μM of GP8 or GP9 for 24 h. RNA was extracted and mRNA levels of collagen 1A1 (Col1A1) relative to 18S were measured by RTPCR.
Cell culture reagents were from Life Technologies Inc (Invitrogen SA, Barcelona, Spain). HepG2 hepatoblastoma cells (cat. no. HB-8065; ATCC, LGC Standards SLU, Barcelona, Spain) were maintained in Dulbecco's modified Eagle medium (DMEM) supplemented with 10% fetal bovine serum and antibiotics. HepG2 cells were treated with vehicle or 10 μM of GP4, GP7, GP8 and GP9 for 24 h. LX-2 human hepatic stellate cells (SCC064) were maintained in DMEM supplemented with 2% fetal bovine serum and antibiotics. […]
Total RNA was extracted from HepG2 and LX-2 cells using TRIzol reagent (Invitrogen SA). […] Results were analyzed using the 7000 Sequence Detection System program (Applied Biosystems, Thermo Fisher Scientific, Barcelona, Spain) (Sex Hormone-Binding Globulin Reduction in Metabolic Disorders May Play a Role in NAFLD Development.Saez-Lopez C, Barbosa-Desongles A, Hernandez C, Dyer R A, Innis S M, Simo R, Selva D M. Endocrinology. 2017 Mar. 1; 158(3):545-559. doi: 10.1210/en.2016-1668).

Experiment [5] concerns human mature adipocytes. Nature of the experiment: Lipolysis in human mature adipocytes (glycerol production), Example 3. Format: cell-based. To be noted: Homo sapiens, Adipocyte; 1 μM, 16 h, with respect to controls; read-out: increase of glycerol concentration (lipolysis positive control). Here is the method:
FIG. 4 Mature human subcutaneous adipocytes were treated with vehicle (DMSO), 1 μM of Isoproterenol, Semaglutide (10 nM) or GP6 (25, 50 or 100 μg/ml) for 16 h. Glycerol concentration was assessed using a Lipolysis Assay Kit (Tebu-bio).
as §1
Lipolysis assays were performed using a Lipolysis Kit (Tebu-Bio) following the manufacturer's instructions as previously described by Saez-Lopez and collaborators (Sex hormone-binding globulin overexpression protects against high-fat diet-induced obesity in transgenic male mice. Saez-Lopez C, Villena J A, Simo R, Selva D M. J Nutr Biochem. 2020 November; 85:108480. doi: 10.1016/j.jnutbio.2020.108480.)

The conditions of experiment [6]: EP 3003351 A1; cited from earlier work.

For the molecule `CC[C@@H](C)[C@@H](NC(=O)[C@@H](CCCCN)NC(=O)[C@H](NC(=O)[C@@H](CC(C)C)NC(=O)[C@@H](CC(=O)O)NC(=O)[C@@H](Cc1ccccc1)NC(=O)[C@H](NC(=O)[C@@H](CCSC)NC(=O)[C@H](N)C(C)C)[C@H](C)O)[C@H](C)O)C(=O)N[C@@H](C(=O)N[C@H](CCCCN)C(=O)N[C@@H](C(=O)N[C@H](CO)C(=O)N[C@H](CO)C(=O)N[C@H](CO)C(=O)N[C@H](Cc1ccccc1)C(=O)N[C@H](CCC(=O)O)C(=O)N[C@@H](C(=O)N[C@H](CCCNC(=N)N)C(=O)N[C@@H](C(=O)N[C@H](Cc1c[nH]c2ccccc12)C(=O)N[C@H](CC(=O)O)C(=O)N1CCC[C@@H]1C(=O)N[C@H](CCC(=O)O)C(=O)NCC(=O)N[C@@H](C(=O)N[C@@H](C(=O)N[C@H](Cc1ccccc1)C(=O)N[C@H](Cc1ccc(O)cc1)C(=O)O)[C@H](C)CC)C(C)C)[C@H](C)O)C(C)C)[C@H](C)O)[C@H](C)O` [GP4], in experiment [1], the “ATP-Citrate Lyase (ACLY) mRNA levels” value is reported as “did not alter”, the “Acetyl-CoA Carboxylase (ACC) mRNA levels” value was “reduced” and the “Fatty Acid Synthase (FAS) mRNA levels” value is “increased”. Further, the “increase of glycerol production (lipolysis)” value in experiment [2] stood at 500%. Also, in experiment [3] (40 μg/ml), the “fructose-induced expression of ACC” value was “able to reduce”, the “fructose-induced expression of ACLY” value is reported as “able to reduce”, the “fructose-induced expression of FAS” value was “able to reduce” and the “fructose-induced expression of PPARγ” value is recorded as “able to reduce”.
For `CC[C@@H](C)[C@@H](NC(=O)[C@H](NC(=O)CNC(=O)[C@@H](CCC(=O)O)NC(=O)[C@H]1CCCN1C(=O)[C@@H](CC(=O)O)NC(=O)[C@@H](Cc1c[nH]c2ccccc12)NC(=O)[C@H](N)[C@H](C)O)C(C)C)C(=O)N[C@H](Cc1ccccc1)C(=O)N[C@H](Cc1ccc(O)cc1)C(=O)NCC(=O)N[C@H](CC(=O)O)C(=O)N[C@@H](C(=O)N[C@H](CC(N)=O)C(=O)N1CCC[C@@H]1C(=O)N[C@H](CCCCN)C(=O)N[C@H](CC(=O)O)C(=O)N[C@H](CC(=O)O)C(=O)N[C@H](Cc1c[nH]c2ccccc12)C(=O)N[C@H](Cc1ccccc1)C(=O)N[C@H](CCSC)C(=O)N[C@H](CC(C)C)C(=O)NCC(=O)N[C@H](CC(C)C)C(=O)N[C@H](CCCNC(=N)N)C(=O)N[C@H](CC(=O)O)C(=O)NCC(=O)N[C@H](CCCNC(=N)N)C(=O)N1CCC[C@@H]1C(=O)N[C@H](CCC(=O)O)C(=O)O)[C@H](C)O` [GP9], in experiment [1], the “ATP-Citrate Lyase (ACLY) mRNA levels” value is listed as “did not alter”, the “Acetyl-CoA Carboxylase (ACC) mRNA levels” value was “did not alter” and the “Fatty Acid Synthase (FAS) mRNA levels” value is “reduced”. In experiment [4], the “reduction of Col1A1 mRNA levels induced by TGFβ1” value was 21%. Besides, the “increase of glycerol production (lipolysis)” value in experiment [2] is on record as 170%. Further, in experiment [3] (40 μg/ml), the “fructose-induced expression of ACC” value is “able to reduce the expression of ACC and ACLY more effectively than SHBG”; the “fructose-induced expression of ACLY” value was “able to reduce the expression of ACC and ACLY more effectively than SHBG”; the “fructose-induced expression of FAS” value is “had no effect on FAS”; the “fructose-induced expression of PPARγ” value is listed as “increased PPARγ expression”.
Consider `CC(C)NCC(O)c1ccc(O)c(O)c1` (stereo not drawn) [isoproterenol, 4-[1-hydroxy-2-(propan-2-ylamino)ethyl]benzene-1,2-diol, reference compound], for which, in experiment [2] (Homo sapiens, Adipocyte, 3 μM, with respect to control, read-out: increase of glycerol concentration (lipolysis positive control)), the activation at 3 µM was 370%. The activation at 1 µM in experiment [5] came to 400%.

B1: SHBG: sex hormone-binding globulin (SHBG) protein (protein, UniProt P04278 30-402, looked up)
Sex hormone-binding globulin: LRPVLPTQSAHDPPAVHLSNGPGQEPIAVMTFDLTKITKTSSSFEVRTWDPEGVIFYGDTNPKDDWFMLGLRDGRPEIQLHNHWAQLTVGAGPRLDDGRWHQVEVKMEGDSVLLEVDGEEVLRLRQVSGPLTSKRHPIMRIALGGLLFPASNLRLPLVPALDGCLRRDSWLDKQAEISASAPTSLRSCDVESNPGIFLPPGTQAEFNLRDIPQPHAEPWAFSLDLGLKQAAGSGHLLALGTPENPSWLSLHLQDQKVVLSSGSGPGLDLPLVLGLPLQLKLSMSRVVLSQGSKMKALALPPLGLAPLLNLWAKPQGRLFLGALPGEDSSTSFCLNGLWAQGQRLDVDQALNRSHEIWTHSCPQSPGNGTDASH
Turning to B1, in experiment [3] (SHBG 20 nM), the “fructose-induced expression of ACC” value is recorded as “able to reduce”, the “fructose-induced expression of ACLY” value is reported as “able to reduce”, the “fructose-induced expression of FAS” value is on record as “able to reduce” and the “fructose-induced expression of PPARγ” value is listed as “able to reduce”. Besides, the “lipolytic and anti-lipogenic activity” value in experiment [6] is “has lipolytic and anti-lipogenic activity”.
